Reference: publication PMC12090182, “Repurposing of the RIPK1-Selective Benzo[1,4]oxazepin-4-one Scaffold for the Development of a Type III LIMK1/2 Inhibitor” (ACS Chemical Biology, 2025)

Tests used:
Assay in all cases: scanMAX KINOMEscan (Eurofins)
Type in all cases: binding
[1] = biological target: RIPK4 (Homo sapiens, UniProt P57078); settings: 1000 nM, read-out: Percent Control
Text: (§1) Supplement cb5c00097_si_002.xlsx, sheet "Table S6 (Eurofins Selectivity)" | column: Percent Control

[2] = biological target: EPHA8 (Homo sapiens, UniProt P29322); settings: 1000 nM, read-out: Percent Control
Text: as §1

[3] = biological target: ITK (Homo sapiens, UniProt Q08881); settings: 1000 nM, read-out: Percent Control
Text: as §1

[4] = biological target: TXK (Homo sapiens, UniProt P42681); settings: 1000 nM, read-out: Percent Control
Text: as §1

[5] = biological target: PRKG1 (Homo sapiens, UniProt Q13976); settings: 1000 nM, read-out: Percent Control
Text: as §1

[6] = biological target: PDGFRA (Homo sapiens, UniProt P16234); settings: 1000 nM, read-out: Percent Control
Text: as §1

[7] = biological target: VRK2 (Homo sapiens, UniProt Q86Y07); settings: compound concentration 100 nM; Entrez VRK2; read-out: Percent Control
Text: as §1

[8] = biological target: MYO3A (Homo sapiens, UniProt Q8NEV4); settings: 1000 nM, read-out: Percent Control
Text: as §1

[9] = biological target: TAOK3 (Homo sapiens, UniProt Q9H2K8); settings: 1000 nM, read-out: Percent Control
Text: as §1

[10] = biological target: LKB1 (Homo sapiens, UniProt Q15831); settings: 1000 nM, read-out: Percent Control
Text: as §1

[11] = biological target: PCTK2 (Homo sapiens, UniProt Q00537); settings: 1000 nM, read-out: Percent Control
Text: as §1

[12] = biological target: PIK4CB (Homo sapiens, UniProt Q9UBF8); settings: 1000 nM, read-out: Percent Control
Text: as §1

[13] = biological target: DYRK1B (Homo sapiens, UniProt Q9Y463); settings: read-out: Percent Control
Sequence of DYRK1B (Q9Y463 whole entry): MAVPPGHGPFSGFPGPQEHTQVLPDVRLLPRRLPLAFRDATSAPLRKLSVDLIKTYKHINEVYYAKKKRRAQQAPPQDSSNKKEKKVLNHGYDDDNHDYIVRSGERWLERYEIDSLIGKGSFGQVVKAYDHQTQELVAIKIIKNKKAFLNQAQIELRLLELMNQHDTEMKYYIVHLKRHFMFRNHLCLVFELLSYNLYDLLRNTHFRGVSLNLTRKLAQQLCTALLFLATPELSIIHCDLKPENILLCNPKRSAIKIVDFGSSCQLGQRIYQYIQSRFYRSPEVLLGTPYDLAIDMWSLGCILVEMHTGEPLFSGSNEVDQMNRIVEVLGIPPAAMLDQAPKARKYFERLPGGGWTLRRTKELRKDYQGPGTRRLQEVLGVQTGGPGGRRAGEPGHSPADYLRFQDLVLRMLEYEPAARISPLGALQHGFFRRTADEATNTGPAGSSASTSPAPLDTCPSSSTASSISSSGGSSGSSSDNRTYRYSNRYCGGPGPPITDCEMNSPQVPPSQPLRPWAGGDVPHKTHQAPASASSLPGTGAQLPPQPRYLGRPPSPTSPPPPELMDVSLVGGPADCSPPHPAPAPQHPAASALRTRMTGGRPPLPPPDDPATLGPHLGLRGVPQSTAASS
Text: as §1

[14] = biological target: PKMYT1 (Homo sapiens, UniProt Q99640); settings: 1000 nM, read-out: Percent Control
Text: as §1

[15] = biological target: CSNK1A1 (Homo sapiens, UniProt P48729); settings: 1000 nM, read-out: Percent Control
Text: as §1

[16] = biological target: CAMK1D (Homo sapiens, UniProt Q8IU85); settings: read-out: Percent Control
Sequence of CAMK1D (Q8IU85 whole entry): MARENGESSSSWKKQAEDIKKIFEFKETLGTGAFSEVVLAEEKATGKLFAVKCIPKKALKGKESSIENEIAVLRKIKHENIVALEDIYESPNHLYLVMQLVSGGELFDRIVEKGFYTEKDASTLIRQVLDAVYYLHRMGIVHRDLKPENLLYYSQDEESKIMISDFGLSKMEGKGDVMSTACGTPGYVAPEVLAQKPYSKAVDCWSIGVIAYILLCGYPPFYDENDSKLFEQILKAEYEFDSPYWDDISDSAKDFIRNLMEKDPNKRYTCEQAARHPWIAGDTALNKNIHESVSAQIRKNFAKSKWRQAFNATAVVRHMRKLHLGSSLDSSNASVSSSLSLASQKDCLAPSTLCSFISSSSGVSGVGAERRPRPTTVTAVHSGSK
Text: as §1

[17] = biological target: EPHB3 (Homo sapiens, UniProt P54753); settings: read-out: Percent Control
Sequence of EPHB3 (P54753 34-998): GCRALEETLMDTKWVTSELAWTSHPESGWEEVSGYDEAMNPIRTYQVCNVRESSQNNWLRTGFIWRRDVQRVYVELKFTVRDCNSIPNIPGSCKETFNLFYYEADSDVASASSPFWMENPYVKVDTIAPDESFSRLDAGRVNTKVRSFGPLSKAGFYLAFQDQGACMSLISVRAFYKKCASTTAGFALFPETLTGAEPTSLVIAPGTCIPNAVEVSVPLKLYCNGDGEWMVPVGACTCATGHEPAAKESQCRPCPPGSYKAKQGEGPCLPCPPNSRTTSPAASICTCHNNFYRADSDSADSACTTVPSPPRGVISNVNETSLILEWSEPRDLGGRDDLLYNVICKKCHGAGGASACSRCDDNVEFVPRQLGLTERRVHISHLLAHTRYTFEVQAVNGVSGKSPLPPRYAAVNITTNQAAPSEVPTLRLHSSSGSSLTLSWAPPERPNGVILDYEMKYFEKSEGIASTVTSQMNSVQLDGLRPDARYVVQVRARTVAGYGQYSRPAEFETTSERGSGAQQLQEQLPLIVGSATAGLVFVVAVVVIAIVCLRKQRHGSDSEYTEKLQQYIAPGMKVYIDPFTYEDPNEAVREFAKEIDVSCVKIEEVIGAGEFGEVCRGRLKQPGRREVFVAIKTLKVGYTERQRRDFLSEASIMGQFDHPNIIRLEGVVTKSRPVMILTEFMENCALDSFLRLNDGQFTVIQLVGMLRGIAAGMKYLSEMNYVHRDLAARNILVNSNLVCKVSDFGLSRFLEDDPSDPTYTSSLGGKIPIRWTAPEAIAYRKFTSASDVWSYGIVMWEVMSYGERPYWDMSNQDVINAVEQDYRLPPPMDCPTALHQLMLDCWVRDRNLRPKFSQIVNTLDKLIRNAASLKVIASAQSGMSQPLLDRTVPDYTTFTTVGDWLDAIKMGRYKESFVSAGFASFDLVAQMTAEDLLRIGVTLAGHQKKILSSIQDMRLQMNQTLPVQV
Text: as §1

[18] = biological target: PFPK5(P.falciparum) (Plasmodium falciparum, UniProt P61075); settings: 1000 nM, read-out: Percent Control
Text: as §1

[19] = biological target: MRCKB (Homo sapiens, UniProt Q9Y5S2); settings: compound concentration 100 nM; Entrez CDC42BPB; read-out: Percent Control
Text: as §1

[20] = biological target: MARK4 (Homo sapiens, UniProt Q96L34); settings: compound concentration 100 nM; Entrez MARK4; read-out: Percent Control
Text: as §1

[21] = biological target: CDK7 (Homo sapiens, UniProt P50613); settings: read-out: Percent Control
Sequence of CDK7 (P50613 whole entry): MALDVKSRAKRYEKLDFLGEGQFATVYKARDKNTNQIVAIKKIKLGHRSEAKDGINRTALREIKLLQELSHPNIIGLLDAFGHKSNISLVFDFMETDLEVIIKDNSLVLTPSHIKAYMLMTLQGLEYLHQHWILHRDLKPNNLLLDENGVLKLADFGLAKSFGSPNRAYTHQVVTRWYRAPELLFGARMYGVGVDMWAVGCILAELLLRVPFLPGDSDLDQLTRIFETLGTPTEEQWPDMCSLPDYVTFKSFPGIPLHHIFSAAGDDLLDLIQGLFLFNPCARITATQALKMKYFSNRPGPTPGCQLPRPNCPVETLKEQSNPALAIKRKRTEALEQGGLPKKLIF
Text: as §1

[22] = biological target: IKK-epsilon (Homo sapiens, UniProt Q14164); settings: 1000 nM, read-out: Percent Control
Text: as §1

[23] = biological target: PKN2 (Homo sapiens, UniProt Q16513); settings: compound concentration 100 nM; Entrez PKN2; read-out: Percent Control
Text: as §1

[24] = biological target: RPS6KA4(Kin.Dom.2-C-terminal) (Homo sapiens, UniProt O75676); settings: compound concentration 100 nM; Entrez RPS6KA4; read-out: Percent Control
Text: as §1

[25] = biological target: BRK (Homo sapiens, UniProt Q13882); settings: 1000 nM, read-out: Percent Control
Text: as §1

[26] = biological target: PHKG2 (Homo sapiens, UniProt P15735); settings: 1000 nM, read-out: Percent Control
Sequence of PHKG2 (P15735 whole entry): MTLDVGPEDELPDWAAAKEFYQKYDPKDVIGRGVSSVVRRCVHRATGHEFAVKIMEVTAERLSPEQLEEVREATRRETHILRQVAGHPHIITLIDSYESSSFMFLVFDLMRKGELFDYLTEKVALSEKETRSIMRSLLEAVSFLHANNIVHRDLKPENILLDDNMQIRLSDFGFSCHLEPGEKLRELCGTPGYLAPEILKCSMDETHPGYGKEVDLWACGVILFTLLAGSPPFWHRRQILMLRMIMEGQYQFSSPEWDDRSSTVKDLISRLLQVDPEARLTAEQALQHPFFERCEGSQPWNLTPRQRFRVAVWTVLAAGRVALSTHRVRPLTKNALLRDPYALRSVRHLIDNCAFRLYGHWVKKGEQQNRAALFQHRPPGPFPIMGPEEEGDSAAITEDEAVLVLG
Text: as §1

[27] = biological target: SRPK3 (Homo sapiens, UniProt Q9UPE1); settings: compound concentration 100 nM; Entrez SRPK3; read-out: Percent Control
Text: as §1

[28] = biological target: CDK4-cyclinD1 (Homo sapiens, UniProt P11802); settings: 1000 nM, read-out: Percent Control
Text: as §1

[29] = biological target: TTK (Homo sapiens, UniProt P33981); settings: 1000 nM, read-out: Percent Control
Text: as §1

[30] = biological target: CSNK1G3 (Homo sapiens, UniProt Q9Y6M4); settings: read-out: Percent Control
Sequence of CSNK1G3 (Q9Y6M4 whole entry): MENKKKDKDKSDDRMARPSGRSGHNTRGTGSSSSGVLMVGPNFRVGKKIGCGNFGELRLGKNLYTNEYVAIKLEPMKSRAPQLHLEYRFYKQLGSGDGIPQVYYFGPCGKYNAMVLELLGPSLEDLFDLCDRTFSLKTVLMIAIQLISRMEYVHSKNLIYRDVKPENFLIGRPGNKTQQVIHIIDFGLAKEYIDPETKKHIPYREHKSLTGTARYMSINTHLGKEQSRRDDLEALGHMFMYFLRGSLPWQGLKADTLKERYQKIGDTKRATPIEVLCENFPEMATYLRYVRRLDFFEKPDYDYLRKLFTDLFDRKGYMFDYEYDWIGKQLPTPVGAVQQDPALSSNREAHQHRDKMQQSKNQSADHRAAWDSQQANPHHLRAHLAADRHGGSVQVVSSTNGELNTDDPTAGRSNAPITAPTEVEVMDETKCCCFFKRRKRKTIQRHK
Text: as §1

[31] = biological target: CDC2L5 (Homo sapiens, UniProt Q14004); settings: read-out: Percent Control
Sequence of CDC2L5 (Q14004 whole entry): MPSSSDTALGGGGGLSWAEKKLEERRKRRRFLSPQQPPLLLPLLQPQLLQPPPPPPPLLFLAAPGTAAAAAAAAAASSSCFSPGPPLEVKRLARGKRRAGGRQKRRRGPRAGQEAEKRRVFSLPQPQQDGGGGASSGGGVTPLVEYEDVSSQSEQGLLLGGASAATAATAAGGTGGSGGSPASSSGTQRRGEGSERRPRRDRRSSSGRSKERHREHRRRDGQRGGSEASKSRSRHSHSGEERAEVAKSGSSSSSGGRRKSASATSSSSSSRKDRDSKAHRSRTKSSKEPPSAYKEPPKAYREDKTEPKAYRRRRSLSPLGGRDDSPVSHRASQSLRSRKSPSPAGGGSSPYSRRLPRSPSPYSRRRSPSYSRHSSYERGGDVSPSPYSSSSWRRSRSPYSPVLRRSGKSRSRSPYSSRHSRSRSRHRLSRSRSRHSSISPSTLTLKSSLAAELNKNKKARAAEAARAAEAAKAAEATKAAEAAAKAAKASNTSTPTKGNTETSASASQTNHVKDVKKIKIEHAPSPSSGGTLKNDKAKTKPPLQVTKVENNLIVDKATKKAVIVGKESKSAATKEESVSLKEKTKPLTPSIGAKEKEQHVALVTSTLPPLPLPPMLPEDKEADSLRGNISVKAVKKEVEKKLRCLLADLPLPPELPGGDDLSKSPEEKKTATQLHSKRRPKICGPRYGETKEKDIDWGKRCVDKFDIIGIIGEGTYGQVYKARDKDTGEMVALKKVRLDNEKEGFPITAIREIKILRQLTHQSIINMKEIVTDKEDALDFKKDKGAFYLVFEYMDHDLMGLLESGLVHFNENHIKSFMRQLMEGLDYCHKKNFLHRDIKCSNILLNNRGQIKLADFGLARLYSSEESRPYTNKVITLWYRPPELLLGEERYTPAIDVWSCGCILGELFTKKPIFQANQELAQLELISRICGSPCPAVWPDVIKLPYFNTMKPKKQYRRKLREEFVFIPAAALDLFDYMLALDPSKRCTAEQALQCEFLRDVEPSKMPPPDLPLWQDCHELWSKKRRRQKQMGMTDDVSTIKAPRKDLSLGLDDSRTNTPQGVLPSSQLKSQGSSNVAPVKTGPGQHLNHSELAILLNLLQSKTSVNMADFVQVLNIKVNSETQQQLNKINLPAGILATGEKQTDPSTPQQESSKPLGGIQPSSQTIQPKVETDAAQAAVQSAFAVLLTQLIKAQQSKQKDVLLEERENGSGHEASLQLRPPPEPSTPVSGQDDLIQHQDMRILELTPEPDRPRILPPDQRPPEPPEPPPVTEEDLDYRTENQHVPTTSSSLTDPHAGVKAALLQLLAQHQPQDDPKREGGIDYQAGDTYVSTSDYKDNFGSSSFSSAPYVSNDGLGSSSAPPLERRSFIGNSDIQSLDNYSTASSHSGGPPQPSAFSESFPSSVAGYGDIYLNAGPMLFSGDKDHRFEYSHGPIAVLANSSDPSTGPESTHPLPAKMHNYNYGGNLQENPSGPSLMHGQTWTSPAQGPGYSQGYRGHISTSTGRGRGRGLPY
Text: as §1

[32] = biological target: p38-alpha (Homo sapiens, UniProt Q16539); settings: compound concentration 100 nM; Entrez MAPK14; read-out: Percent Control
Sequence of p38-alpha (Q16539 whole entry): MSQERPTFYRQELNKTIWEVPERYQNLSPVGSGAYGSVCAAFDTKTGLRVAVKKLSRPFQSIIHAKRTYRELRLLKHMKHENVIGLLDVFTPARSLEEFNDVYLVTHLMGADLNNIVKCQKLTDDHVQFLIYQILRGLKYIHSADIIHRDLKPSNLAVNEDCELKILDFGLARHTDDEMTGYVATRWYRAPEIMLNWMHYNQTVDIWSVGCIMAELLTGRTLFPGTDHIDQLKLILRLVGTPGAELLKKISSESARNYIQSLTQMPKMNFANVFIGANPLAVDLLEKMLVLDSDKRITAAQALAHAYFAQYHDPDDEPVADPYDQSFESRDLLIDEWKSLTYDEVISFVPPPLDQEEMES
Text: as §1

[33] = biological target: RSK1(Kin.Dom.2-C-terminal) (Homo sapiens, UniProt Q15418); settings: compound concentration 100 nM; Entrez RPS6KA1; read-out: Percent Control
Text: as §1

[34] = biological target: TLK2 (Homo sapiens, UniProt Q86UE8); settings: compound concentration 100 nM; Entrez TLK2; read-out: Percent Control
Text: as §1

[35] = biological target: HIPK2 (Homo sapiens, UniProt Q9H2X6); settings: 1000 nM, read-out: Percent Control
Text: as §1

[36] = biological target: TNIK (Homo sapiens, UniProt Q9UKE5); settings: 1000 nM, read-out: Percent Control
Text: as §1

SMILES: CN1C(=O)[C@@H](N2CCc3c(nn(Cc4ccccc4)c3C(N)=O)C2=O)COc2cc(Cl)ccc21 [Compound 10, (S)-2-benzyl-6-(8-chloro-5-methyl-4-oxo-2,3,4,5-tetrahydrobenzo[b][1,4]oxazepin-3-yl)-7-oxo-4,5,6,7-tetrahydro-2H-pyrazolo[3,4-c]pyridine-3-carboxamide]
- remaining binding at 1 µM [1]: 83%
- remaining binding at 1 µM [2]: 97%
- remaining binding at 1 µM [3]: 89%
- remaining binding at 1 µM [4]: 86%
- remaining binding at 1 µM [5]: 91%
- remaining binding at 1 µM [6]: 87%
- remaining binding at 0.1 µM [7]: 77%
- remaining binding at 1 µM [8]: 94%
- remaining binding at 1 µM [9]: 96%
- remaining binding at 1 µM [10]: 88%
- remaining binding at 1 µM [11]: 90%
- remaining binding at 1 µM [12]: 75%
- remaining binding at 1 µM ([13]; 1000 nM): 100%
- remaining binding at 0.1 µM ([13]; compound concentration 100 nM, Entrez DYRK1B): 100%
- remaining binding at 1 µM [14]: 95%
- remaining binding at 1 µM [15]: 83%
- remaining binding at 1 µM ([16]; 1000 nM): 100%
- remaining binding at 0.1 µM ([16]; compound concentration 100 nM, Entrez CAMK1D): 92%
- remaining binding at 1 µM ([17]; 1000 nM): 100%
- remaining binding at 0.1 µM ([17]; compound concentration 100 nM, Entrez EPHB3): 71%
- remaining binding at 1 µM [18]: 66%
- remaining binding at 0.1 µM [19]: 95%
- remaining binding at 0.1 µM [20]: 76%
- remaining binding at 1 µM ([21]; 1000 nM): 99%
- remaining binding at 0.1 µM ([21]; compound concentration 100 nM, Entrez CDK7): 72%
- remaining binding at 1 µM [22]: 75%
- remaining binding at 0.1 µM [23]: 90%
- remaining binding at 0.1 µM [24]: 100%
- remaining binding at 1 µM [25]: 87%
- remaining binding at 1 µM [26]: 78%
- remaining binding at 0.1 µM [27]: 100%
- remaining binding at 1 µM [28]: 72%
- remaining binding at 1 µM [29]: 93%
- remaining binding at 1 µM ([30]; 1000 nM): 100%
- remaining binding at 0.1 µM ([30]; compound concentration 100 nM, Entrez CSNK1G3): 98%
- remaining binding at 1 µM ([31]; 1000 nM): 100%
- remaining binding at 0.1 µM ([31]; compound concentration 100 nM, Entrez CDK13): 100%
- remaining binding at 0.1 µM [32]: 100%
- remaining binding at 0.1 µM [33]: 97%
- remaining binding at 0.1 µM [34]: 82%
- remaining binding at 1 µM [35]: 81%
- remaining binding at 1 µM [36]: 96%
